Results on one compound are retold here after patent US20250099528A1, “ORAL COMPOSITION” (Toyo Shinyaku Co., Ltd., priority 2023, published 2025).

The series has as its system Caco-2 cells. Nature of the series: Leucine permeability test using Caco-2 cells. The format is in vitro ADME, Human. Conditions: Caco-2 insert wells, luminal to basolateral side, culture two hours, L-leucine 0.131 mg/mL, HPLC. On the procedure: To assess the action of promoting free amino acid absorption of a dark-green vegetable, leucine permeability was measured by a test using Caco-2 cells. The following materials were used as test substances. • (1) As a dark-green vegetable, crushed powder of young barley grass (containing 43% by weight of dietary fiber; manufactured by TOYO SHINYAKU Co., Ltd.) which was obtained by washing grass harvested before heading, then cutting, drying, and then crushing was used. The crushed powder of young barley grass in an amount of 24 mg was put into a tube, and after adding 1 mL of a buffer, the mixture was vortexed. Then, the supernatant was collected through centrifugation at 15,000×g for five minutes at room temperature. […] When the medium was changed before the addition of the samples, the medium outside the insert wells (the wells at the basolateral side) was replaced with 1000 μl of 10% FBS-DMEM, and the medium inside the insert wells (the wells at the luminal side) was replaced with 350 μl of 10% FBS-DMEM. • (5) The electrical resistance values were measured with Millicell ERS-2, and the wells having a value of 1000Ω or more were used. […] The leucine concentrations of the obtained concentrated liquids were measured with high performance liquid chromatography. The measurement results were applied to the equation below, and thus the leucine permeability was calculated. […]
For orientation: Caco-2 cells form a polarised layer with tight junctions and transporters.

Consider `CC(C)C[C@H](N)C(=O)O` [Comparative Example 1, L-leucine], for which the “Leucine Permeability (%)” value was 1.32%.
